Reference: patent US20200109163A1, “CARBONATED BEVERAGE AND METHOD FOR CARBONATION ENHANCEMENT” (INTERNATIONAL FLAVORS & FRAGRANCES INC., priority 2018, published 2020)

Legend:
Assay type in all cases: in vivo
[1] = Carbonation effect of structural analogs in lime-flavored carbonated water, trained panel
Procedure: Selected structural analogs of sitosterol were tested for their ability to enhance the carbonation effect of a carbonated beverage. The analogs were used in amounts of 400 ppb and 200 ppb to 5 ppm. The sensory evaluation was carried by a trained panel that tasted each of the compounds in a lime-flavored carbonated water (Vintage seltzer water). The intensity of carbonation effect was rated and compared to other samples (Table 3)

[2] = Carbonation sensation with varying amounts of β-sitosterol in carbonated water (7.2 g/L CO2)
Procedure: (§1) Carbonated water containing carbon dioxide at 6.0, 7.2 and 8.0 g/L, respectively, were also prepared.
A series of β-sitosterol solutions (prepared in Example 1) were added to carbonated water (7.2 g/L CO2) (prepared in Example 1) to yield final concentrations ranging from 0.1 ppt to 50 ppt. The carbonation sensation of the obtained samples containing different amounts of β-sitosterol was evaluated.

[3] = Alcohol sensation with varying amounts of β-sitosterol in alcohol solution at 17.5% ABV
Procedure: (§2) Alcohol solutions with ABV ranging from 8.75% to […] were prepared by diluting CAPTAIN MORGAN® Original Spiced Rum (35% ABV) (Diageo North America Inc.) in varying amounts of water.
A series of β-sitosterol solutions (prepared in Example 1) were added to the alcohol solution at 17.5% ABV (prepared in Example 1) to yield final concentrations of β-sitosterol ranging from 3 to 500 ppb. The alcohol sensation of the obtained samples containing different amounts of β-sitosterol was evaluated.

[4] = Carbonation effect intensity in carbonated water (7.2 g/L CO2), panel, scale 0 to 10; details: 2.5 ppt in solution of 7.2 g/L CO2; scale 0 to 10 (0=none, 4=medium, 7=high, 10=extremely high); control 4.88 ± 2.53
Procedure: as §1
A β-sitosterol solution (prepared in Example 1) was added to the carbonated water (7.2 g/L CO2) (prepared in Example 1) to yield a final concentration of 2.5 ppt. The carbonation effect of the obtained sample was evaluated and compared by a panel with the carbonated water using an intensity scale of 0 to 10, where 0=none, 4=medium, 7=high and 10=extremely high. The intensity of carbonation effect was rated. Mean (“Carbonation Intensity”) and standard error of the mean (“SE”, ±) were obtained (Table 2).

[5] = Alcohol impression in alcohol-free beer, panel comparison with alcohol solutions; details: 25 ppb in Brahma 0.0% alcohol-free beer
Procedure: Alcohol solutions at 1% ABV, 2% ABV, 2.5% ABV, 3% ABV and 5% ABV were prepared by adding varying amounts of ethanol in Brahma 0.0% alcohol-free beer (Anheuser-Busch InBev);
A β-sitosterol solution (prepared in Example 1) was added in Brahma 0.0% alcohol-free beer to yield a final concentration of 25 ppb. The alcohol impression of the obtained sample was evaluated and compared by a panel with alcohol solutions at 1% ABV, 2% ABV, 2.5% ABV, 3% ABV and 5% ABV (prepared in Example 1). β-Sitosterol (25 ppb) provided an equal level of alcohol impression as the alcohol solution at 2.5% ABV. Accordingly, β-Sitosterol provided alcohol sensation in alcohol-free beverages.

[6] = Carbonation sensation with varying amounts of carbonation; details: 2.5 ppt in carbonated water containing 6.0, 7.2 or 8.0 g/L CO2, all samples
Procedure: as §1
A β-sitosterol solution (prepared in Example 1) was added to carbonated water containing 6.0, 7.2 or 8.0 g/L CO2 (prepared in Example 1), respectively, to yield a final concentration of 2.5 ppt β-sitosterol. The carbonation sensation of the obtained samples was evaluated.

[7] = Flavor of β-sitosterol solutions in water; details: solutions 2.5 to 600 ppb in water
[8] = Alcohol sensation intensity in alcohol solution at 6% ABV, panel, scale 0 to 10; details: 100 ppb in solution of 6% ABV; scale 0 to 10 (0=none, 4=medium, 7=high, 10=extremely high); control 4.38 ± 0.32
Procedure: Alcohol solution at 6% ABV was prepared by adding ethanol in water; and
A β-sitosterol solution (prepared in Example 1) was added to the alcohol solution at 6% ABV (prepared in Example 1) to yield a final concentration of 100 ppb. The alcohol sensation of the obtained sample was evaluated and compared by a panel with the alcohol solution at 6% ABV using an intensity scale of 0 to 10, where 0=none, 4=medium, 7=high and 10=extremely high. The intensity of alcohol sensation was rated. Mean (“Alcohol Intensity”) and standard error of the mean (“SE”, ±) were obtained (Table 1).

[9] = Alcohol sensation with varying amounts of alcohol, panel comparison with solutions at higher ABV
Procedure: as §2
A β-sitosterol solution (prepared in Example 1) was added to alcohol solutions at 8.75% ABV, 17.5% ABV and 21.75% ABV (prepared in Example 1), respectively, to yield a final concentration of 25 ppb β-sitosterol. The alcohol sensation of the obtained samples was evaluated and compared by a panel with alcohol solutions at higher levels of ABV.

[10] = 200 ppb-5 ppm in lime-flavored carbonated water (Vintage seltzer water)
[11] = 200 ppb in lime-flavored carbonated water (Vintage seltzer water)

CC[C@H](CC[C@@H](C)[C@H]1CC[C@H]2[C@@H]3CC=C4C[C@@H](O[C@@H]5O[C@H](CO)[C@@H](O)[C@H](O)[C@H]5O)CC[C@]4(C)[C@H]3CC[C@]12C)C(C)C [β-Sitosterol β-D-glucoside, Daucosterol, β-Sitosterol β-D-glucoside]
Carbonation Effect [1, 10]: 200 ppb-5 ppm: Slight tingly tip of tongue,

C[C@H](CCC(=O)O)[C@H]1CC[C@H]2[C@@H]3C[C@H](O)[C@@H]4C[C@H](O)CC[C@]4(C)[C@H]3CC[C@]12C [Hyodeoxycholic acid]
Carbonation Effect [1, 11]: 200 ppb: Very foamy, fast bubbles upfront,

C[C@H](CCC(=O)NCCS(=O)(=O)[O-])[C@H]1CC[C@H]2[C@@H]3[C@@H](O)C[C@@H]4C[C@H](O)CC[C@]4(C)[C@H]3CC[C@]12C.[Na+] [Sodium tauroursodeoxycholate]
Carbonation Effect [1, 11]: 200 ppb: Very impactful, numbing, slightly more

C[C@@H]1CC[C@@]2(OC1)O[C@H]1C[C@H]3[C@@H]4CC=C5C[C@@H](O)CC[C@]5(C)[C@H]4CC[C@]3(C)[C@H]1[C@@H]2C [Diosgenin]
Carbonation Effect [1, 10]: 200 ppb-5 ppm: Not much effect on carbonation,

CC(C)(O)[C@@H]1CC[C@](C)([C@H]2[C@@H](O)C[C@@]3(C)[C@@H]4C[C@H](O[C@@H]5O[C@H](CO)[C@@H](O)[C@H](O)[C@H]5O)[C@H]5C(C)(C)[C@@H](O[C@@H]6OC[C@@H](O)[C@H](O)[C@H]6O)CC[C@@]56C[C@@]46CC[C@]23C)O1 [Astragaloside IV]
Carbonation Effect [1, 11]: 200 ppb: More impactful, long lasting, very

CC[C@H](/C=C/[C@@H](C)[C@H]1CC[C@H]2[C@@H]3CC=C4C[C@@H](O)CC[C@]4(C)[C@H]3CC[C@]12C)C(C)C [Stigmasterol]
Carbonation Effect [1, 10]: 200 pb-5 ppm: 5 ppm is a good level, adds more

C=C(C)[C@@H]1CC[C@]2(CO)CC[C@]3(C)[C@H](CC[C@@H]4[C@@]5(C)CC[C@H](O)C(C)(C)[C@@H]5CC[C@]43C)[C@@H]12 [Betulin]
Carbonation Effect [1, 11]: 200 ppb: Long lasting popping, sour, works with

C[C@H](CCC(=O)O)[C@H]1CC[C@H]2[C@@H]3[C@H](O)C[C@@H]4C[C@H](O)CC[C@]4(C)[C@H]3CC[C@]12C [Chenodeoxycholic acid]
Carbonation Effect [1, 10]: 200 ppb-5 ppm: Adds more violent upfront

CC(C)CCC[C@@H](C)[C@H]1CC[C@H]2[C@@H]3CC=C4C[C@@H](O)CC[C@]4(C)[C@H]3CC[C@]12C [Cholesterol]
Carbonation Effect [1, 10]: 200 ppb-5 ppm: Very similar to Deoxycholic

C[C@H](CCC(=O)O)[C@H]1CC[C@H]2[C@@H]3[C@H](O)C[C@@H]4C[C@H](O)CC[C@]4(C)[C@H]3C[C@H](O)[C@]12C [Cholic acid]
Carbonation Effect [1, 11]: 200 ppb: More tingly bubbles on tongue, linger,
Carbonation Effect ([1]; 400 ppb in lime-flavored carbonated water (Vintage seltzer water)): 400 ppb: Very foamy, foam builds, lingering

C[C@H](CCC(=O)NCC(=O)O)[C@H]1CC[C@H]2[C@@H]3[C@H](O)C[C@@H]4C[C@H](O)CC[C@]4(C)[C@H]3C[C@H](O)[C@]12C [Glycocholic acid hydrate]
Carbonation Effect [1, 11]: 200 ppb: Longer lasting bubbles than control,

CC[C@H](CC[C@@H](C)[C@H]1CC[C@H]2[C@@H]3CC=C4C[C@@H](O)CC[C@]4(C)[C@H]3CC[C@]12C)C(C)C [β-sitosterol, (3S,8S,9S,10R,13R,14S,17R)-17-((1R,4R)-4-ethyl-1,5-dimethyl-hexyl)-10,13-dimethyl-2,3,4,7,8,9,10,11,12,13,14,15,16,17-tetradecahydro-1H-cyclopenta[a]phenanthren-3-ol]
Carbonation perception ([2]; 0.1 ppt in carbonated water (7.2 g/L CO2)): slight increase in carbonation perception
Carbonation perception ([2]; 2.5 ppt in carbonated water (7.2 g/L CO2)): clear increase in carbonation perception
Enhancement of carbonation effect ([2]; 5 ppt or higher in carbonated water (7.2 g/L CO2)): reached a stable plateau
Alcohol sensation ([3]; 3 ppb in alcohol solution at 17.5% ABV): slight but noticeable increase in alcohol sensation
Enhancement of alcohol sensation ([3]; 200 ppb in alcohol solution at 17.5% ABV): reached a stable plateau
Alcohol sensation ([3]; higher concentrations (above 3 ppb, up to 500 ppb) in alcohol solution at 17.5% ABV): clear increase in alcohol intensity
Mean Carbonation Intensity ± SE [4]: 7.19 ± 1.73
Alcohol impression, equal level as alcohol solution at [5]: 2.5 % ABV
Carbonation sensation [6]: provided enhancement of carbonation sensation
Flavor of the compound itself [7]: no noticeable flavor itself
Mean Alcohol Intensity ± SE [8]: 7.21 ± 0.27
Alcohol sensation at the level of an alcohol solution at ([9]; 25 ppb in alcohol solution at 8.75% ABV): 10 % ABV
Alcohol sensation at the level of an alcohol solution at ([9]; 25 ppb in alcohol solution at 17.5% ABV): 22.5 % ABV
Alcohol sensation at the level of an alcohol solution at ([9]; 25 ppb in alcohol solution at 21.75% ABV): 35 % ABV
